This note sets out measurements from patent US7666884B2, “N-(2-substituted phenyl)-N-methoxycarbamates and their preparation and use thereof” (priority 2005, dated 2010).

The subject of data set [1] is wheat powdery mildew. Description: Protective activity test against wheat powdery mildew. The settings on record: for control %: protective, assessed 7 days later. It counts as in vivo.
In data set [2] the test system is wheat powdery mildew. Description: Curative activity test against wheat powdery mildew. It counts as in vivo. The settings on record: for control %: curative, sprayed 4 days after inoculation.
Data set [3] deals with wheat powdery mildew. Description: Fungicidal activity tests against wheat powdery mildew (wheat seedlings sprayed at 200 mg/L, greenhouse). In kind it is in vivo. Particulars: 200 mg/L spray, inoculated 24 hours later, visual assessment 7 days after treatment. On the procedure: Compounds for test were weighed quantitatively and dissolved into acetone of suitable volume (acetone's volume is 10% of the whole solution's volume), then diluted by water containing 0.1% (volume percent, the same below) Tween 80, into 200 mg/L. By turntable crop sprayer, wheat seedlings with 1 leaf and 1 core were treated under the spray pressure of 1.5 kg/cm^2 and the spray volume of about 1000 L/hm^2, then naturally dry, 24 hours later wheat powdery mildew spore was inoculated, and then continue being incubated in greenhouse. Assessment of efficacy was carried out by visual observation 7 days later after treatment.

Data set [4] concerns Wheat Fusarium Head Blight. Description: microbe, parasite or virus in culture. The settings on record: read-out: Effect of mycelium growth inhibition (%). It counts as cell-based.
The test system of another data set is Cucumber anthracnose. Description: In vitro fungicidal activity test, PDA mycelium growth inhibition method. In kind it is cell-based.
For the next data set, the system named is Rice false smut. The data set is described as above. In kind it is cell-based.
In another data set the test system is Rice blast. Description: microbe, parasite or virus in culture. It counts as cell-based.
In another data set the test system is Wheat root rot. Description: In vitro fungicidal activity test, PDA mycelium growth inhibition method. It counts as cell-based. On the procedure:
(§1) PDA mycelium growth inhibition method was used for this test. Compound 13 (content 95%) was weighed quantitatively and dissolved in acetone of suitable volume (acetone's volume is 10% of the whole solution's volume), then diluted with water containing 0.1% Tween 80 into the solution of the medicament at the needed concentration, and then diluted with the same water into a series of concentration for tests. The medicament for test diluted by water was added quantitatively into the heating full-nutrition culture medium, to form culture medium including the medicament at a series of concentration, and then poured into 9-cm culture dish, after cooling, inoculated with the pathogen cake (diameter 0.5 cm) for test which was incubated in vitro, each treatment was repeated tree times. After treatment, placed in growth chamber in 27° C., 3-4 days later, observe the growth of the blank contrast fungi colony, the diameter of fungi colony was investigated and measured, and corrected inhibition ratio was calculated.

A further data set relates to Cucumber scab. Described as above. In kind it is cell-based. Here is the method:
as §1

For data set [5], the system named is corn curvalaria leaf spot. The description is as above. It counts as cell-based.
For the next data set, the system named is Cucumber wilt blight. The description is as above. It counts as cell-based. Particulars: 27° C., 3-4 days, read-out: Effect of mycelium growth inhibition (%).
The test system of the next data set is Rice sheath blight. The description is as above. In kind it is cell-based.
Where [6] appears, read: Pyricularia oryzae, read-out: Effect of mycelium growth inhibition (%).
Setting [7] is: 0.1 mg/L, 27° C., 3-4 days, read-out: Effect of mycelium growth inhibition (%).
Setting [8] is: 1 mg/L, 27° C., 3-4 days, read-out: Effect of mycelium growth inhibition (%).
The mark [9] stands for this setting: 10 mg/L, 27° C., 3-4 days, read-out: Effect of mycelium growth inhibition (%).

`CO/N=C(/C(=O)OC)c1ccccc1COc1ccccc1C` [Kresoxim-methyl, reference compound]: the control % with wheat powdery mildew [1] (concentration 0.78 mg/L) is 15%; with wheat powdery mildew [1] (concentration 1.56 mg/L) it was 40%; with wheat powdery mildew [1] (concentration 3.125 mg/L), 70%; in the data set with wheat powdery mildew [1] (concentration 6.25 mg/L), 98%; in the data set with wheat powdery mildew [1] (concentration 12.5 mg/L) it was 100%; in the data set on wheat powdery mildew [2] (concentration 0.78 mg/L), 0%. Also, the control % was determined as 10% in the data set with wheat powdery mildew [2] (concentration 1.56 mg/L), 15% in the data set on wheat powdery mildew [2] (concentration 3.125 mg/L), 75% in the data set with wheat powdery mildew [2] (concentration 6.25 mg/L) and 100% in the data set on wheat powdery mildew [2] (concentration 12.5 mg/L).
In turn, `COC(=O)N(OC)c1ccccc1CNc1c(Cl)c(F)nc(F)c1Cl` [Compound 49, Methyl N-(2-((3,5-dichloro-2,6-difluoropyridin-4-yl)aminomethyl)phenyl)-N-methoxycarbamate] showed a melting point of 82 to 83 °C. Besides, the “control %” value in the data set with wheat powdery mildew [3] is listed as 85%.
`COC(=O)N(OC)c1ccccc1COc1nc(Cl)c(Cl)cc1Cl` [Compound 13, Methyl N-methoxy-N-(2-((3,5,6-trichloropyridin-2-yl)oxymethyl)phenyl)carbamate] registered a melting point of 94 to 95 °C. Further, in data set [4], the inhibition at 0.1 µg/mL was determined as 20.3%, the inhibition at 1 µg/mL was determined as 21.1% and the inhibition at 10 µg/mL is 42.9%. In the data set on Cucumber anthracnose (Cucumber anthracnose, 0.1 mg/L, 27° C., 3-4 days, read-out: Effect of mycelium growth inhibition (%)), the inhibition at 0.1 µg/mL was 42.8%. Besides, the inhibition at 1 µg/mL in the data set with Cucumber anthracnose (Cucumber anthracnose, 1 mg/L, 27° C., 3-4 days, read-out: Effect of mycelium growth inhibition (%)) turned out to be 62.8%. Besides, in the data set with Cucumber anthracnose (Cucumber anthracnose, 10 mg/L, 27° C., 3-4 days, read-out: Effect of mycelium growth inhibition (%)), the inhibition at 10 µg/mL came out at 72.4%. Also, the “fungicidal activity (in words)” value in the data set on Cucumber anthracnose (cucumber anthracnose, in vitro) was “outstanding”. For the same molecule, in the data set with Rice false smut (Rice false smut, 0.1 mg/L, 27° C., 3-4 days, read-out: Effect of mycelium growth inhibition (%)), the inhibition at 0.1 µg/mL is 19.5%. The inhibition at 1 µg/mL in the data set with Rice false smut (Rice false smut, 1 mg/L, 27° C., 3-4 days, read-out: Effect of mycelium growth inhibition (%)) was 42.8%. In addition, the inhibition at 10 µg/mL in the data set with Rice false smut (Rice false smut, 10 mg/L, 27° C., 3-4 days, read-out: Effect of mycelium growth inhibition (%)) worked out at 79.2%. Also, the “fungicidal activity (in words)” value in the data set with Rice false smut (rice false smut, in vitro) was “outstanding”. In addition, the “control %” value in the data set on wheat powdery mildew [3] is reported as 100%. Moreover, in the data set on Rice blast (setting [6]), the inhibition at 0.1 µg/mL came to 36.6%, the inhibition at 1 µg/mL stood at 62.6% and the inhibition at 10 µg/mL was determined as 77.2%. The “fungicidal activity (in words)” value in the data set on Rice blast (rice blast, in vitro) is recorded as “outstanding”. Besides, the control % in the data set with wheat powdery mildew [1] (concentration 0.78 mg/L) amounted to 100%. The molecule also came in with a control % in the data set on wheat powdery mildew [1] (concentration 1.56 mg/L) of 100%. Also, the control % in the data set on wheat powdery mildew [1] (concentration 3.125 mg/L) is listed as 100%. The control % in the data set with wheat powdery mildew [1] (concentration 6.25 mg/L) stood at 100%. In addition, the control % in the data set on wheat powdery mildew [1] (concentration 12.5 mg/L) is given as 100%. In the data set on wheat powdery mildew [1] (versus Kresoxim-methyl, 0.78-12.5 mg/L), the “preventative activity compared with the standard chemical (in words)” value is on record as “obviously better than the one of the standard chemical”. The inhibition at 0.1 µg/mL in the data set with Wheat root rot (Wheat root rot, 0.1 mg/L, 27° C., 3-4 days, read-out: Effect of mycelium growth inhibition (%)) was determined as 32.6%. In the data set with Wheat root rot (Wheat root rot, 1 mg/L, 27° C., 3-4 days, read-out: Effect of mycelium growth inhibition (%)), the inhibition at 1 µg/mL amounted to 46.3%. For the same molecule, the inhibition at 10 µg/mL in the data set on Wheat root rot (Wheat root rot, 10 mg/L, 27° C., 3-4 days, read-out: Effect of mycelium growth inhibition (%)) was found to be 61.1%. Moreover, the “fungicidal activity (in words)” value in the data set on Wheat root rot (wheat root rot, in vitro) was “outstanding”. Moreover, the inhibition at 0.1 µg/mL with Cucumber scab (setting [7]) was 28.7%. Besides, the inhibition at 1 µg/mL in the data set with Cucumber scab (setting [8]) stood at 50%. Besides, in the data set on Cucumber scab (setting [9]), the inhibition at 10 µg/mL came out at 65%. Besides, the “fungicidal activity (in words)” value in the data set on Cucumber scab (in vitro) is “outstanding”. In addition, in data set [5] (setting [7]), the inhibition at 0.1 µg/mL was determined as 55.4%. The inhibition at 1 µg/mL in [5] (setting [8]) was found to be 56.2%. In data set [5] (setting [9]), the inhibition at 10 µg/mL worked out at 70.2%. Moreover, in data set [5] (in vitro), the “fungicidal activity (in words)” value is “outstanding”. Besides, the inhibition at 0.1 µg/mL with Cucumber wilt blight (0.1 mg/L) was found to be 27.1%. Moreover, in the data set with Cucumber wilt blight (1 mg/L), the inhibition at 1 µg/mL was determined as 33.6%. Moreover, in the data set on Cucumber wilt blight (10 mg/L), the inhibition at 10 µg/mL came out at 51.4%. Further, in the data set with Rice sheath blight (Rice sheath blight, 0.1 mg/L, 27° C., 3-4 days, read-out: Effect of mycelium growth inhibition (%)), the inhibition at 0.1 µg/mL worked out at 42.7%. In the data set on Rice sheath blight (Rice sheath blight, 1 mg/L, 27° C., 3-4 days, read-out: Effect of mycelium growth inhibition (%)), the inhibition at 1 µg/mL is 59.2%. Also, the inhibition at 10 µg/mL in the data set on Rice sheath blight (Rice sheath blight, 10 mg/L, 27° C., 3-4 days, read-out: Effect of mycelium growth inhibition (%)) worked out at 78.6%. Also, the “fungicidal activity (in words)” value in the data set with Rice sheath blight (rice sheath blight, in vitro) is on record as “outstanding”. In the data set with wheat powdery mildew [2] (concentration 0.78 mg/L), the control % was found to be 10%. The control % in the data set on wheat powdery mildew [2] (concentration 1.56 mg/L) is 35%. This molecule also had a control % in the data set with wheat powdery mildew [2] (concentration 3.125 mg/L) of 70%. Further, the control % in the data set with wheat powdery mildew [2] (concentration 6.25 mg/L) is 100%. Besides, the control % in the data set on wheat powdery mildew [2] (concentration 12.5 mg/L) was found to be 100%. Further, the “curative activity compared with the standard chemical (in words)” value in the data set with wheat powdery mildew [2] (versus kresoxim-methyl) is given as “better than the one of standard chemical”.

The melting point is the temperature, or range, at which the solid turns liquid. As a reminder, the inhibition is the drop in the measured response relative to a control, in per cent.
